Results: patent US20140011799A1 (Bristol-Myers Squibb Company, priority 2012, published 2014)

Target: T1, Endothelial lipase (EL) (Homo sapiens, UniProt Q9Y5X9)
T1 construct: HT-1080 cells that were transformed using RAGE technology (Athersys) to overexpress endogenous EL; endogenous in cells; conditioned medium used
T1 sequence (Q9Y5X9 21-500): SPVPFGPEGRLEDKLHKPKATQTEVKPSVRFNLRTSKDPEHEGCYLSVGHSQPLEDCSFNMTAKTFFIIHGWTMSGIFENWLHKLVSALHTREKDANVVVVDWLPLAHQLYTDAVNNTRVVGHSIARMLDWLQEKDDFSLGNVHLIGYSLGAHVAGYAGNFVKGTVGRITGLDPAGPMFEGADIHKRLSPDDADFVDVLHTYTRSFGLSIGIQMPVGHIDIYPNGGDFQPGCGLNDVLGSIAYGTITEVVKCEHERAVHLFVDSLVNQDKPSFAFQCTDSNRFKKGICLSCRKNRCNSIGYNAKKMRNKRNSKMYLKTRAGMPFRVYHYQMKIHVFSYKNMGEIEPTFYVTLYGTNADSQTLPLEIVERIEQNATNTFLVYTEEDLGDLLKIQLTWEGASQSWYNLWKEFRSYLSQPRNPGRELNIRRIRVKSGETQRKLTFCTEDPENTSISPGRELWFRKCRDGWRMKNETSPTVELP
Experiment: Endothelial lipase (EL) enzymatic assay, fluorescent substrate A10070 in DMPG vesicles
Format: biochemical
Conditions: EL from conditioned media of HT-1080 cells; compound preincubated 30 min at 37° C; read-out: EL IC50
Description: Endothelial lipase (EL) and hepatic lipase (HL) activities were measured using a fluorescent substrate, A10070, (Invitrogen, CA) doped into an artificial vesicle containing DMPG (Avanti Polar Lipids) as the excipient. Vesicles were prepared by combining 571 μL of 29 mM DMPG in a 1:1 mixture of MeOH and CHCl3 with 2000 μL of 1 mM A10070 in a 1:1 mixture of MeOH and CHCl3. The mixture was dried under nitrogen in multiple vials then resuspended in 20 mL total volume of 50 mM HEPES pH 8.0 buffer containing 50 mM NaCl and 0.2 mM EDTA. The sample was allowed to sit at room temperature for 15 min and then was sonicated 3×4 mins on ice with a Branson Sonicator using duty cycle 1. This preparation provides vesicles with a mole fraction of 0.11 for the FRET substrate.
The enzymatic assay was measured using 384-well white Optiplates. Each well contained 20 μL of assay buffer (50 mM HEPES pH 8.0, 50 mM NaCl and 1 mM CaCl2) and 0.25 μL of a DMSO solution containing a compound of interest. EL or HL (10 μL) was added and allowed to incubate with the compound for 30 min at 37° C. The source of EL was conditioned media obtained from HT-1080 cells that were transformed using RAGE technology (Athersys) to overexpress endogenous EL, and HL was partially purified from conditioned media obtained from COS cells overexpressing HL. The reaction was started by the addition of 10 μL of a 1:10 dilution of vesicles. The final total reaction volume was […]. The reaction rates were measured on a Gemini plate reader with an excitation wavelength of 490 nm and an emission wavelength of 530 nm. Readings were taken over a period of 60 minutes, and the slope between 300 and 900 secs of the readout was used to calculate the rate of the reaction.

Question: With `COc1nc(-c2nnc(C(c3nc4ccc(-c5ccc(F)cc5)cc4s3)S(C)(=O)=O)o2)c(O)c(=O)[nH]1` (centres unmarked) [Example 43, 6-(5-((6-(4-Fluorophenyl)benzo[d]thiazol-2-yl)(methylsulfonyl)methyl)-1,3,4-oxadiazol-2-yl)-5-hydroxy-2-methoxypyrimidin-4(3H)-one] as the compound, how does the IC50 read?
Answer: 14 nM

Question: Which IC50 does the source give for `COc1nc(-c2nnc(C(c3nc4ccc(-c5ccccc5)cc4s3)S(=O)(=O)CCC(F)(F)F)o2)c(O)c(=O)[nH]1` (centres unmarked) [Example 44, 5-Hydroxy-2-methoxy-6-(5-((6-phenylbenzo[d]thiazol-2-yl)((3,3,3-trifluoropropyl)sulfonyl)methyl)-1,3,4-oxadiazol-2-yl)pyrimidin-4(3H)-one] here?
Answer: 77 nM

Question: How did the IC50 turn out when `CS(=O)(=O)C(c1nnc(C[C@@H]2NS(=O)(=O)NC2=O)o1)c1nc2ccc(-c3ccccc3)cc2s1` (stereo partly drawn) [Example 45, (4S)-4-((5-((Methylsulfonyl)(6-phenylbenzo[d]thiazol-2-yl)methyl)-1,3,4-oxadiazol-2-yl)methyl)-1,2,5-thiadiazolidin-3-one 1,1-dioxide] was run?
Answer: < 10 nM

Question: For `CS(=O)(=O)C(c1nnc(CNS(N)(=O)=O)o1)c1nc2ccc(-c3ccccc3)cc2s1` (centres unmarked) [Example 46, N-({5-[(M ethylsulfonyl)(6-phenyl-1,3-benzothiazol-2-yl)methyl]-1,3,4-oxadiazol-2-yl}methyl)sulfuric diamide], which IC50 is on record?
Answer: < 10 nM

Question: `NS(=O)(=O)NCc1nnc(C(c2nc3ccc(-c4ccccc4)cc3s2)S(=O)(=O)Cc2ccccc2)o1` (centres unmarked) [Example 47, N-((5-((benzylsulfonyl) (6-phenyl-1,3-benzothiazol-2-yl)methyl)-1,3,4-oxadiazol-2-yl)methyl)sulfamide] was tested. Which IC50 did it give?
Answer: < 10 nM

Question: With `NS(=O)(=O)NCc1nnc(C(c2nc3ccc(-c4ccccc4)cc3s2)S(=O)(=O)Cc2ccc(C(F)(F)F)cc2)o1` (centres unmarked) [Example 48, N-((5-((6-phenyl-1,3-benzothiazol-2-yl)((4-(trifluoromethyl)benzyl)sulfonyl)methyl)-1,3,4-oxadiazol-2-yl)methyl)sulfamide] as the compound, how does the IC50 read?
Answer: < 10 nM

Question: Which IC50 does the source give for `CC(C)S(=O)(=O)C(c1nnc(CNS(N)(=O)=O)o1)c1nc2ccc(-c3ccccc3)cc2s1` (centres unmarked) [Example 49] here?
Answer: < 10 nM

Question: How did the IC50 turn out when `NS(=O)(=O)NCc1nnc(C(c2nc3ccc(-c4ccccc4)cc3s2)S(=O)(=O)CCC(F)(F)F)o1` (centres unmarked) [Example 50, N-[(5-{(6-phenyl-1,3-benzothiazol-2-yl) [(3,3,3-trifluoropropyl)sulfonyl]methyl}-1,3,4-oxadiazol-2-yl)methyl]sulfuric diamide] was run?
Answer: < 10 nM

Question: For `NS(=O)(=O)NCc1nnc(C(c2nc3ccc(-c4ccccc4)cc3s2)S(=O)(=O)Cc2ccccc2F)o1` (centres unmarked) [Example 51, N-((5-(((2-fluorobenzyl)sulfonyl)(6-phenyl-1,3-benzothiazol-2-yl)methyl)-1,3,4-oxadiazol-2-yl)methyl)sulfamide], which IC50 is on record?
Answer: < 10 nM

Question: How did the IC50 turn out when `NS(=O)(=O)NCc1nnc(C(c2nc3ccc(-c4ccccc4)cc3s2)S(=O)(=O)CCN2C(=O)c3ccccc3C2=O)o1` (centres unmarked) [Example 52, N-[(5-{(6-phenyl-1,3-benzothiazol-2-yl) ([2-(1,3-dioxo-1,3-dihydro-2H-isoindol-2-yl)ethyl]sulfonyl)methyl}-1,3,4-oxadiazol-2-yl)methyl]sulfuric diamide] was run?
Answer: < 10 nM

Question: How did the IC50 turn out when `NS(=O)(=O)NCc1nnc(C(c2nc3ccc(-c4ccccc4)cc3s2)S(=O)(=O)C2CCOCC2)o1` (centres unmarked) [Example 53, N-({5-[6-phenyl-1,3-benzothiazol-2-yl (tetrahydro-2H-pyran-4-ylsulfonyl)methyl]-1,3,4-oxadiazol-2-yl}methyl) sulfuric diamide] was run?
Answer: < 10 nM

Question: Which IC50 does the source give for `NS(=O)(=O)NCc1nnc(C(c2nc3ccc(-c4ccccc4)cc3s2)S(=O)(=O)CCCc2ccccc2)o1` (centres unmarked) [Example 54, N-((5-((6-phenyl-1,3-benzothiazol-2-yl) ((3-phenylpropyl)sulfonyl)methyl)-1,3,4-oxadiazol-2-yl)methyl) sulfamide] here?
Answer: ~10 nM

Question: How did the IC50 turn out when `COc1ccc(OCCCS(=O)(=O)C(c2nnc(CNS(N)(=O)=O)o2)c2nc3ccc(-c4ccccc4)cc3s2)cc1` (centres unmarked) [Example 55, N-((5-(((3-(4-methoxyphenoxy)propyl)sulfonyl) (6-phenyl-1,3-benzothiazol-2-yl)methyl)-1,3,4-oxadiazol-2-yl)methyl)sulfamide] was run?
Answer: < 10 nM

Question: Which IC50 does the source give for `NS(=O)(=O)NCc1nnc(C(c2nc3ccc(-c4ccccc4)cc3s2)S(=O)(=O)Cc2cccc(F)c2)o1` (centres unmarked) [Example 56, N-((5-(((3-fluorobenzyl)sulfonyl)(6-phenyl-1,3-benzothiazol-2-yl)methyl)-1,3,4-oxadiazol-2-yl)methyl)sulfamide] here?
Answer: < 10 nM

Question: How did the IC50 turn out when `NS(=O)(=O)NCc1nnc(C(c2nc3ccc(-c4ccccc4)cc3s2)S(=O)(=O)Cc2cccc(Br)c2)o1` (centres unmarked) [Example 57] was run?
Answer: < 10 nM

Question: For `NS(=O)(=O)NCc1nnc(C(c2nc3ccc(-c4ccccc4)cc3s2)S(=O)(=O)Cc2ccc(Cl)cc2)o1` (centres unmarked) [Example 58, N-((5-(((4-chlorobenzyl)sulfonyl)(6-phenyl-1,3-benzothiazol-2-yl)methyl)-1,3,4-oxadiazol-2-yl)methyl)sulfamide], which IC50 is on record?
Answer: < 10 nM

Question: With `NS(=O)(=O)NCc1nnc(C(c2nc3ccc(-c4ccccc4)cc3s2)S(=O)(=O)Cc2cc(Cl)cc(Cl)c2)o1` (centres unmarked) [Example 59, N-((5-(((3,5-dichlorobenzyl)sulfonyl)(6-phenyl-1,3-benzothiazol-2-yl)methyl)-1,3,4-oxadiazol-2-yl)methyl)sulfamide] as the compound, how does the IC50 read?
Answer: < 10 nM

Question: `NS(=O)(=O)NCc1nnc(C(c2nc3ccc(-c4ccccc4)cc3s2)S(=O)(=O)Cc2ccc(Cl)c(Cl)c2)o1` (centres unmarked) [Example 60, N-((5-(((3,4-chlorobenzyl)sulfonyl)(6-phenyl-1,3-benzothiazol-2-yl)methyl)-1,3,4-oxadiazol-2-yl)methyl)sulfamide] was tested. Which IC50 did it give?
Answer: < 10 nM

Question: `NS(=O)(=O)NCc1nnc(C(c2nc3ccc(-c4ccccc4)cc3s2)S(=O)(=O)CC2CC2)o1` (centres unmarked) [Example 61, N-[(5-{6-phenyl-1,3-benzothiazol-2-yl [(cyclopropylmethyl)sulfonyl]methyl}-1,3,4-oxadiazol-2-yl)methyl]sulfuric diamide] was tested. Which IC50 did it give?
Answer: < 10 nM

Question: How did the IC50 turn out when `NS(=O)(=O)NCc1nnc(C(c2nc3ccc(-c4ccccc4)cc3s2)S(=O)(=O)Cc2cccc(C(F)(F)F)c2)o1` (centres unmarked) [Example 62, N-((5-(((3-(trifluoromethyl)benzyl)sulfonyl) (6-phenyl-1,3-benzothiazol-2-yl)methyl)-1,3,4-oxadiazol-2-yl)methyl)sulfamide] was run?
Answer: < 10 nM

Question: With `NS(=O)(=O)NCc1nnc(C(c2nc3ccc(-c4ccccc4)cc3s2)S(=O)(=O)CCCC(F)(F)F)o1` (centres unmarked) [Example 63, N-[(5-{(6-phenyl-1,3-benzothiazol-2-yl) [(4,4,4-trifluorobutyl)sulfonyl]methyl}-1,3,4-oxadiazol-2-yl)methyl] sulfuric diamide] as the compound, how does the IC50 read?
Answer: < 10 nM

Question: `Cc1cccc(CS(=O)(=O)C(c2nnc(CNS(N)(=O)=O)o2)c2nc3ccc(-c4ccccc4)cc3s2)c1` (centres unmarked) [Example 64, N-((5-(((3-methylbenzyl)sulfonyl)(6-phenyl-1,3-benzothiazol-2-yl)methyl)-1,3,4-oxadiazol-2-yl)methyl)sulfamide] was tested. Which IC50 did it give?
Answer: < 10 nM

Question: Which IC50 does the source give for `CCS(=O)(=O)C(c1nnc(CNS(N)(=O)=O)o1)c1nc2ccc(-c3ccccc3)cc2s1` (centres unmarked) [Example 65, N-({5-[(ethylsulfonyl) (6-phenyl-1,3-benzothiazol-2-yl)methyl]-1,3,4-oxadiazol-2-yl}methyl)sulfuric diamide] here?
Answer: < 10 nM
